In ChEMBL document CHEMBL5625232, “Development of selective class I protein arginine methyltransferase inhibitors through fragment-based drug design approach” (Eur J Med Chem, 2023):
pIC50: −log10 of the molar value. Activity calls are given as the source filed them. The rule behind the calls is not given here.

Key:
[1] = biological target: T1, Protein arginine N-methyltransferase 9 (Homo sapiens) (UniProt Q6P2P2); assay: Displacement of 3H-SAM from human PRMT9 at 10 uM in presence of substrate by SPA assay
T1 sequence (whole entry): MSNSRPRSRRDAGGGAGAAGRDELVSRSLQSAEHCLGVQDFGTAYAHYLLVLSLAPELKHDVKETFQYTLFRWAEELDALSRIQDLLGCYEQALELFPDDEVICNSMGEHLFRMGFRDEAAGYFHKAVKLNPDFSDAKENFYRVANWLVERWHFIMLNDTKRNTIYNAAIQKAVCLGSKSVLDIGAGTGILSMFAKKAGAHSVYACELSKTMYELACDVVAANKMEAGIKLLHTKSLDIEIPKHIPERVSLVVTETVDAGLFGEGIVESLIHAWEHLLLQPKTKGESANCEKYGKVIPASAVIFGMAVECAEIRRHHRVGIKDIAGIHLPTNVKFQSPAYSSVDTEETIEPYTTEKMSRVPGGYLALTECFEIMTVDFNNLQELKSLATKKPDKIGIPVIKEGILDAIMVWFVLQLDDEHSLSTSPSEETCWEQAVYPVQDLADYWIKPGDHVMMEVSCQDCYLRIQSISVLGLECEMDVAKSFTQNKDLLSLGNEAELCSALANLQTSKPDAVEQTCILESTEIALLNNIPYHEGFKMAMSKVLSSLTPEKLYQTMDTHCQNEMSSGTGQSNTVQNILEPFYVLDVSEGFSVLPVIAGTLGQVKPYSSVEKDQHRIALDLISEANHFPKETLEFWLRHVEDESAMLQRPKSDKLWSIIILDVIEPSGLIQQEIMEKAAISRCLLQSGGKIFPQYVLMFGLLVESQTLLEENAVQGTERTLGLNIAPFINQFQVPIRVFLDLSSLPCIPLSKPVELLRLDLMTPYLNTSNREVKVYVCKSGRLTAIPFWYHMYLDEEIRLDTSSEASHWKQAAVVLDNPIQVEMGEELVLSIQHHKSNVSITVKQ

[2] = biological target: Protein arginine N-methyltransferase 5 (Homo sapiens) (UniProt O14744); assay: Displacement of 3H-SAM from human PRMT5 at 10 uM in presence of substrate by SPA assay
Chain of Protein arginine N-methyltransferase 5 (Homo sapiens) (O14744 whole entry): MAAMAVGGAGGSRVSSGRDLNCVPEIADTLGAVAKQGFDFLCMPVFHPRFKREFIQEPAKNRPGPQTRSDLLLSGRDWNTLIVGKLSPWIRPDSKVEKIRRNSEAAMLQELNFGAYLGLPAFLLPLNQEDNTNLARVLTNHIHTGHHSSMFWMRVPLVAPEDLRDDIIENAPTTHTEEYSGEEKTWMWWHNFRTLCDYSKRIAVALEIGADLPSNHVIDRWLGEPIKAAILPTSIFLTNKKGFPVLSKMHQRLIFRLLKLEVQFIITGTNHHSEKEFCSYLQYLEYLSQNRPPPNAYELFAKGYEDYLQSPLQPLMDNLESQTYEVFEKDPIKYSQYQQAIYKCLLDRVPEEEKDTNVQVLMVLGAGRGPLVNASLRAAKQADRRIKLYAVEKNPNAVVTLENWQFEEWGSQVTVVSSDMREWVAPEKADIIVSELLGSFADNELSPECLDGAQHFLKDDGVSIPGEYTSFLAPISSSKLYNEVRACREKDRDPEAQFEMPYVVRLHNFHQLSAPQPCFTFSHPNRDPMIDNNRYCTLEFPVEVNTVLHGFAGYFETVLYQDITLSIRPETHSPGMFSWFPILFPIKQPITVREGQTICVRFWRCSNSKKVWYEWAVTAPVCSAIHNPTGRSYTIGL

[3] = biological target: T2, Histone-arginine methyltransferase CARM1 (Homo sapiens) (UniProt Q86X55); assay: Displacement of 3H-SAM from human PRMT4 at 10 uM in presence of substrate by SPA assay
T2 sequence (whole entry): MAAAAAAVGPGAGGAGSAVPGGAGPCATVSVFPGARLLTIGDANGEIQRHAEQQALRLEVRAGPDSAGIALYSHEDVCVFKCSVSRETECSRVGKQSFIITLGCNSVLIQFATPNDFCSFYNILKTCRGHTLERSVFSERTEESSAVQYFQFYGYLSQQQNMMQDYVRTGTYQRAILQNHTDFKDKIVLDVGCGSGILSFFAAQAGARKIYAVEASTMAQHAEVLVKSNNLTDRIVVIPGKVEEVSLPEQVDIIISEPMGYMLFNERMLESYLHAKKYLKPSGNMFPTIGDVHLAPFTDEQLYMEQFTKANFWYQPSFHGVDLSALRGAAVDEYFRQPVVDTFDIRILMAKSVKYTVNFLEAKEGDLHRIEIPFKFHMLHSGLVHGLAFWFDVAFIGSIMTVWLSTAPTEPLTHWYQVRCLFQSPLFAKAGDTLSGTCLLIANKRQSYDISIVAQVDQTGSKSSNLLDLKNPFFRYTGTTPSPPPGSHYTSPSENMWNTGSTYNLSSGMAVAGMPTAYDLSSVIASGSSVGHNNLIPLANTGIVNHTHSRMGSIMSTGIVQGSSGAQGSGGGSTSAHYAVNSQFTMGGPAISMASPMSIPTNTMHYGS

[4] = biological target: T3, Protein arginine N-methyltransferase 6 (Homo sapiens, UniProt Q96LA8); assay: Displacement of 3H-SAM from human PRMT6 at 10 uM in presence of substrate by SPA assay
Target sequence in this assay (Q96LA8 whole entry, looked up): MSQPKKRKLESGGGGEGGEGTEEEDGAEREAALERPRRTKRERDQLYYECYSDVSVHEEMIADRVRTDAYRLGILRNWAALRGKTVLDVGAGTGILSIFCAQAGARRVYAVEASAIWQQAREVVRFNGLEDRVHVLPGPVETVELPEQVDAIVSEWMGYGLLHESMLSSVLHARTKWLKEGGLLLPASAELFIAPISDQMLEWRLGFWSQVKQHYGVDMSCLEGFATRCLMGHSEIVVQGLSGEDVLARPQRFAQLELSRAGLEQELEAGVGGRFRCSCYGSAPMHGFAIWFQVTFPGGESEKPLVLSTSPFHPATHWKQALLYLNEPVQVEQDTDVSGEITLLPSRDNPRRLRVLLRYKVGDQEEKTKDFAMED

[5] = Lipophilicity, log D of compound in 1-octanol at pH 7.4 incubated for 4 hrs by HPLC-UV analysis; assay type: physicochemical; conditions: 1-octanol/aqueous phase
[6] = biological target: T3, Protein arginine N-methyltransferase 6; assay: Displacement of 3H-SAM from human PRMT6 in presence of substrate by SPA assay
Target sequence in this assay (Q96LA8 whole entry): as the sequence (Q96LA8 whole entry, looked up) above

[7] = biological target: T4, Protein arginine N-methyltransferase 3 (Homo sapiens, UniProt O60678); assay: Displacement of 3H-SAM from human PRMT3 at 10 uM in presence of substrate by SPA assay
Target sequence in this assay (O60678 2-531 limits assumed): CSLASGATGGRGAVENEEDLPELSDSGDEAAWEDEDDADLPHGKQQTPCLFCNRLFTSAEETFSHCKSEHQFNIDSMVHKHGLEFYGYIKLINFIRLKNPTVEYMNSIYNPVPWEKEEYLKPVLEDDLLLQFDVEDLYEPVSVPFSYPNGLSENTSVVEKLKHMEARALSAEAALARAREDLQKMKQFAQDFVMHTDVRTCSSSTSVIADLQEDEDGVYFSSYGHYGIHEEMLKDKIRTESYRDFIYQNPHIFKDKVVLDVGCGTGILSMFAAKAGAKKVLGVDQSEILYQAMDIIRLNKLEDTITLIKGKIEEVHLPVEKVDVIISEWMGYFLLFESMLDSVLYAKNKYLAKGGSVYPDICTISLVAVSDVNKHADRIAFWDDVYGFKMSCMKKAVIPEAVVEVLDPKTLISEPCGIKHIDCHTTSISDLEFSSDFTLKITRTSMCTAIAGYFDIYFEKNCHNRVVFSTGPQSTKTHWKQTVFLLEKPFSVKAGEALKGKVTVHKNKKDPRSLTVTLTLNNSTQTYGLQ

[8] = biological target: T5, Protein arginine N-methyltransferase 8 (Homo sapiens, UniProt Q9NR22); assay: Displacement of 3H-SAM from human PRMT8 in presence of substrate by SPA assay
Target sequence in this assay (Q9NR22 whole entry): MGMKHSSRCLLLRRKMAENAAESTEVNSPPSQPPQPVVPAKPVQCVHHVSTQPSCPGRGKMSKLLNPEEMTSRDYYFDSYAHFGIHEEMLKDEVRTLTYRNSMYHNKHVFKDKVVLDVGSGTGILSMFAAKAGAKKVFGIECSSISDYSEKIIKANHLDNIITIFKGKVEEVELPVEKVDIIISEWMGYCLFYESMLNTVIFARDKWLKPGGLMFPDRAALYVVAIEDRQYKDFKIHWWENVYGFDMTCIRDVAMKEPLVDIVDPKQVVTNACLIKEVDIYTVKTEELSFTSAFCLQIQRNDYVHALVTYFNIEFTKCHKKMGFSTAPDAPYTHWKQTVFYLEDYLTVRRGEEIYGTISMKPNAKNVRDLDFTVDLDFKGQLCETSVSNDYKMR

[9] = biological target: T6, Histone-arginine methyltransferase CARM1 (Homo sapiens, UniProt Q86X55); assay: Displacement of 3H-SAM from human PRMT4 in presence of substrate by SPA assay
T6 sequence (Q86X55 whole entry): T2 sequence (whole entry)

[10] = biological target: T4, Protein arginine N-methyltransferase 3; assay: Displacement of 3H-SAM from human PRMT3 in presence of substrate by SPA assay
Target sequence in this assay (O60678 whole entry): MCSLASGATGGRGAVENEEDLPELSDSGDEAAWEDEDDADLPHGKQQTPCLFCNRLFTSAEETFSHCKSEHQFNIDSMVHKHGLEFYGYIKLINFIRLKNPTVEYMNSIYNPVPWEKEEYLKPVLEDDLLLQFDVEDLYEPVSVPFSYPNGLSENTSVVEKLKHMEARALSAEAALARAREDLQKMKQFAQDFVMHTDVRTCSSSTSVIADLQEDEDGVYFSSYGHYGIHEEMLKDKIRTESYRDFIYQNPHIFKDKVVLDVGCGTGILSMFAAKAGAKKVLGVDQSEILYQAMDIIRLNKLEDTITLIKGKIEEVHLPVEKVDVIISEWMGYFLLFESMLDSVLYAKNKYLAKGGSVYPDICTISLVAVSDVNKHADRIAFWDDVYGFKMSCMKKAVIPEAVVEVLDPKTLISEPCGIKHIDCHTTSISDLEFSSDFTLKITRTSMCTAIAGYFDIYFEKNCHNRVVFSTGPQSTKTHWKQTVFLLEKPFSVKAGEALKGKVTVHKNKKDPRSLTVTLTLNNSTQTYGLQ

[11] = biological target: T7, Protein arginine N-methyltransferase 7 (Homo sapiens) (UniProt Q9NVM4); assay: Displacement of 3H-SAM from human PRMT7 at 10 uM in presence of substrate by SPA assay
T7 sequence (whole entry): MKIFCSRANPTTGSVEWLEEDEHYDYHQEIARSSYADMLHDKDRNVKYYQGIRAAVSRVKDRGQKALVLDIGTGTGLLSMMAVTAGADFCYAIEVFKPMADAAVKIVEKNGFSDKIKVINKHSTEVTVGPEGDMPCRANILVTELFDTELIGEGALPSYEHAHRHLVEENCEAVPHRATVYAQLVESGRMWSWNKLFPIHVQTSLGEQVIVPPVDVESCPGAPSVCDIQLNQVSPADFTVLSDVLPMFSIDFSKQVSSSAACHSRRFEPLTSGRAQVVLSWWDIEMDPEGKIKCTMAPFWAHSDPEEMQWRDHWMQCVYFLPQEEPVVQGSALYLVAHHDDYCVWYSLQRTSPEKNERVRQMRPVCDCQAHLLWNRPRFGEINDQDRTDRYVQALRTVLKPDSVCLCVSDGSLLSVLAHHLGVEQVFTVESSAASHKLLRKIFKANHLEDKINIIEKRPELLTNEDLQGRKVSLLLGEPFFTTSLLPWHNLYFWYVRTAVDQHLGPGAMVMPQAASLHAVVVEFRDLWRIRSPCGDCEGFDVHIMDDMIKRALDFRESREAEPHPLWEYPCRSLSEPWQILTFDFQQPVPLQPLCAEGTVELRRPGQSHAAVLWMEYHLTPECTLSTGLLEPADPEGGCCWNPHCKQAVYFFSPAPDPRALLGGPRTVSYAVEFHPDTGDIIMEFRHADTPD

[12] = biological target: T5, Protein arginine N-methyltransferase 8; assay: Displacement of 3H-SAM from human PRMT8 at 10 uM in presence of substrate by SPA assay
Target sequence in this assay (Q9NR22 2-394 limits assumed): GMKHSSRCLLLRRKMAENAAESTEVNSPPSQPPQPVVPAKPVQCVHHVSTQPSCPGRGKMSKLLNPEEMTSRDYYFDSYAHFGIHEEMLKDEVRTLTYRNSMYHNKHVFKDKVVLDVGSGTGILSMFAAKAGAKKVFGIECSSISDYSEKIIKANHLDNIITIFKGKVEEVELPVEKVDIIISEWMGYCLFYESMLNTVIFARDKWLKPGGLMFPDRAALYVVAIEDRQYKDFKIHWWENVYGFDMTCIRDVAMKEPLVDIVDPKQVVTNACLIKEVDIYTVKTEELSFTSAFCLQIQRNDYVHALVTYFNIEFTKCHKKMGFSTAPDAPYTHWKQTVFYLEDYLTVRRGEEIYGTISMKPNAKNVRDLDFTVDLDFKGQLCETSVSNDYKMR

inhibition [1]	inhibition [2]	inhibition [3]	inhibition [4]	logD at 4 h [5]	pIC50 [6]	inhibition [7]	pIC50 [8]	pIC50 [9]	pIC50 [10]	inhibition [11]	inhibition [12]	SMILES
Active	Active	Active	Active	-2.16	3.15	Active	2.61	4.10	2.51	Active	Active	CNCCN1CCC(NC(=O)c2ccc3c(Nc4ccc(CN)cc4)ncnc3c2)C1 (racemic)
Active	Active	Active	Active	-2.27	3.60	Active	3.10	4.43	2.45	Active	Active	CNCCN1CC[C@@H](NC(=O)c2ccc3c(Nc4ccc(CN)cc4)ncnc3c2)C1
Active	Active	Active	Active		3.36	Active	3.08	4.04	2.86	Active	Active	CNCCN1CC[C@H](NC(=O)c2ccc3c(Nc4ccc(CN)cc4)ncnc3c2)C1
